# Source: paper PMC7937321 (Genes and Environment, 2021)
# Assays:
# [1] = test system: rodent; conditions: rodent; ref [20]-[41], Table 2; cited from earlier work
# [2] = Cytotoxicity in the TK6 assay (CE, RS, RSG, RTG); conditions: human; for viability at 24 h, 173.7 μg/mL: 173.70 μg/mL; for viability at 24 h, 277.9 μg/mL: 277.90 μg/mL; for viability at 4 h, 444.7 μg/mL: dose 444.70 μg/mL
# Protocol: (§1) Briefly, test substances were dissolved in an appropriate solvent (DMSO or ethanol) and then serially diluted to prepare final concentrations. […] The 4 h and 24 h treatments were conducted by shaking and static exposures, respectively. After treatment with test substances, cells were centrifuged (1000 rpm, 5 min), supernatants were removed, and cells were washed with a serum-free medium or Hank’s Balanced Salt Solution. After centrifugation (1000 rpm, 5 min) to remove the supernatant, cells (2 × 10^7 cells) were dispersed in an RPMI medium containing 10% serum, and cell concentration was measured. Treated cells were cultured at 37 °C with 5% CO2 condition and used for TK6 assays. At that time, to calculate the cloning efficiency (CE) (Eq. 1), the cells were cultured in a 96-well microplate at a concentration of about 1.6 cells/well for 2 weeks.
# (§2) CE, the cell colony formation rate, was calculated using Eq. 1 according to the Poisson distribution equation. EW was the number of wells without colonies, and TW was the total number of wells. N was the average number of cells per well (N = 1.6). 1 CE=−lnEW/TW/N
# (§3) Additionally, CE was adjusted by the following calculation (Eq. 2) due to cell loss when exposure caused cytotoxicity. “The number of cells at the end of the treatment” was the number of cells obtained after centrifugation at the end of the treatment in the above-described exposure treatment of the test substance. The “cell number at the start of treatment” was 2 × 10^7. 2 AdjustedCE=CE×number of cellsatendof treatment/number of cellsatthe start of treatment
# (§4) CE0 seeding, in which cells were seeded immediately after treatment, and CE3 seeding, in which cells were seeded 3 days after treatment, to examine cell viability in the TK6 assay described below. The relative cell viability RS0 (%) just after the treatment with the test substance was calculated from CE0, following Eq. 3. The survival rate of the negative control group was defined as 100%. 3 RS0%=adjusted CE0 of treatment culture/adjusted CE0 of solvent control×100
# (§5) The TK6 assay is conducted between 20 and 10% RS0 as a maximum dose if cytotoxicity is observed. […] When the main TK6 assay was difficult to conduct under the condition of RS0 values from 20 to 10%, the test was conducted between 20 and 10% relative total growth (RTG), described later, as a maximum dose.
# (§6) Besides RS0, relative suspension growth (RSG) and RTG as other cytotoxicity indices (Eq. 4) were used. When cells were cultured for 3 days after treatment with the test substance, suspension cell growth ratio 1 (SG1) was the growth ratio from day 0 to day 1 (cell concentration on day 1/cell concentration on day 0). The suspension cell growth ratio 2 (SG2) was the growth ratio from day 1 to day 2 (cell concentration on day 2/cell concentration on day 1). The RSG value was calculated by dividing the total SG value of the untreated group for 3 days by the total SG value of the treated group for the same 3 days (Eq. 4).
# (§7) On the third day of culture, CE3 plates for determining plating efficiency and mutant frequency (MF) plates for mutation detection were prepared. CE3 plates were seeded in 96-well microplates at a concentration of about 1.6 cells/well.
# [3] = test system: TK6 cells; assay: Cytotoxicity in the TK6 assay (CE, RS, RSG, RTG); conditions: for RS: graph data
# Protocol: as §1, §2, §3, §4, §5, §6, §7
# [4] = TK6 cells with rat liver S9 mix, CE0 (%), cell viability on Day 0, Short treatment, +S9 mix
# [5] = TK6 cells with rat liver S9 mix, CE3 (%), cell viability on Day 3, Short treatment, +S9 mix
# [6] = TK6 cells without S9 mix, CE0 (%), cell viability on Day 0, 24 h treatment, -S9 mix
# [7] = TK6 cells without S9 mix, CE0 (%), cell viability on Day 0, Short treatment, -S9 mix
# [8] = TK6 cells without S9 mix, CE3 (%), cell viability on Day 3, 24 h treatment, -S9 mix
# [9] = TK6 cells without S9 mix, CE3 (%), cell viability on Day 3, Short treatment, -S9 mix
# [10] = 24 h treatment, -S9 mix, 173.70 μg/mL
# [11] = 24 h treatment, -S9 mix, 277.90 μg/mL
# [12] = 24 h treatment, -S9 mix, 444.70 μg/mL
# [13] = 24 h treatment, -S9 mix, 711.5 μg/mL
# [14] = 24 h treatment, -S9 mix, 1138.4 μg/mL
# [15] = 24 h treatment, -S9 mix, 1821.4 μg/mL
# [16] = Short treatment, +S9 mix, dose 173.7 μg/mL
# [17] = Short treatment, +S9 mix, dose 277.9 μg/mL
# [18] = Short treatment, +S9 mix, dose 445 μg/mL
# [19] = Short treatment, +S9 mix, dose 712 μg/mL
# [20] = Short treatment, +S9 mix, dose 1138 μg/mL
# [21] = Short treatment, +S9 mix, dose 1821 μg/mL
# [22] = Short treatment, -S9 mix, dose 173.70 μg/mL
# [23] = Short treatment, -S9 mix, dose 277.90 μg/mL
# [24] = Short treatment, -S9 mix, dose 444.70 μg/mL
# [25] = Short treatment, -S9 mix, dose 711.5 μg/mL
# [26] = Short treatment, -S9 mix, dose 1138.4 μg/mL
# [27] = Short treatment, -S9 mix, dose 1821.4 μg/mL
smiles,measurement,setting,value
Nc1cc([N+](=O)[O-])ccc1C(=O)O [4-Nitroanthranilic acid],Carcinogenicity Studies,[1],Neg
same,"viability at 4 h, 173.7 μg/mL","[2]; TK6 cells with rat liver S9 mix, CE0 (%), cell viability on Day 0, Short treatment, +S9 mix, dose 173.7 μg/mL",84.1%
same,"viability at 4 h, 277.9 μg/mL","[2]; TK6 cells with rat liver S9 mix, CE0 (%), cell viability on Day 0, Short treatment, +S9 mix, dose 277.9 μg/mL",98%
same,"viability at 4 h, 445 μg/mL",[2]; [4],72.7%
same,"viability at 4 h, 712 μg/mL",[2]; [4],79.3%
same,"viability at 4 h, 1138 μg/mL",[2]; [4],108%
same,"viability at 4 h, 1821 μg/mL",[2]; [4],3.3%
same,"viability at 4 h, 173.7 μg/mL","[2]; TK6 cells with rat liver S9 mix, CE3 (%), cell viability on Day 3, Short treatment, +S9 mix, dose 173.7 μg/mL",70.6%
same,"viability at 4 h, 277.9 μg/mL","[2]; TK6 cells with rat liver S9 mix, CE3 (%), cell viability on Day 3, Short treatment, +S9 mix, dose 277.9 μg/mL",66.7%
same,"viability at 4 h, 445 μg/mL",[2]; [5],81.6%
same,"viability at 4 h, 712 μg/mL",[2]; [5],98%
same,"viability at 4 h, 1138 μg/mL",[2]; [5],84.1%
same,"viability at 4 h, 1821 μg/mL",[2]; [5],44.6%
same,"viability at 24 h, 173.7 μg/mL",[2]; [6],47.4%
same,"viability at 24 h, 277.9 μg/mL",[2]; [6],23.4%
same,"viability at 24 h, 444.7 μg/mL","[2]; TK6 cells without S9 mix, CE0 (%), cell viability on Day 0, 24 h treatment, -S9 mix, 444.70 μg/mL",42%
same,"viability at 24 h, 711.5 μg/mL",[2]; [6],42%
same,"viability at 24 h, 1138.4 μg/mL","[2]; TK6 cells without S9 mix, CE0 (%), cell viability on Day 0, 24 h treatment, -S9 mix, 1138.4 μg/mL",30.4%
same,"viability at 24 h, 1821.4 μg/mL",[2]; [6],24.4%
same,"viability at 4 h, 173.7 μg/mL","[2]; TK6 cells without S9 mix, CE0 (%), cell viability on Day 0, Short treatment, -S9 mix, dose 173.70 μg/mL",120%
same,"viability at 4 h, 277.9 μg/mL","[2]; TK6 cells without S9 mix, CE0 (%), cell viability on Day 0, Short treatment, -S9 mix, dose 277.90 μg/mL",77%
same,"viability at 4 h, 444.7 μg/mL",[2]; [7],77%
same,"viability at 4 h, 711.5 μg/mL",[2]; [7],74.8%
same,"viability at 4 h, 1138.4 μg/mL",[2]; [7],46%
same,"viability at 4 h, 1821.4 μg/mL",[2]; [7],29.4%
same,"viability at 24 h, 173.7 μg/mL",[2]; [8],84.1%
same,"viability at 24 h, 277.9 μg/mL",[2]; [8],84.1%
same,"viability at 24 h, 711.5 μg/mL",[2]; [8],68.7%
same,"viability at 24 h, 1821.4 μg/mL",[2]; [8],43.3%
same,"viability at 4 h, 173.7 μg/mL","[2]; TK6 cells without S9 mix, CE3 (%), cell viability on Day 3, Short treatment, -S9 mix, dose 173.70 μg/mL",89.3%
same,"viability at 4 h, 277.9 μg/mL","[2]; TK6 cells without S9 mix, CE3 (%), cell viability on Day 3, Short treatment, -S9 mix, dose 277.90 μg/mL",77%
same,"viability at 4 h, 444.7 μg/mL",[2]; [9],105%
same,"viability at 4 h, 711.5 μg/mL",[2]; [9],101%
same,"viability at 4 h, 1138.4 μg/mL",[2]; [9],95%
same,"viability at 4 h, 1821.4 μg/mL",[2]; [9],105%
same,cytotoxicity,"[3]; 1138 μg/mL, short-term without metabolic activation",More than 50%
same,cytotoxicity,"[3]; 1821 μg/mL, long-term treatment",More than 80%
same,cytotoxicity,"[3]; 1821 μg/mL, short-term with metabolic activation",approximately 100%
same,cytotoxicity,"[3]; 1821 μg/mL, short-term without metabolic activation",More than 50%
same,Adjusted CE0(%),[3]; [10],111.3%
same,RS0 (%),[3]; [10],133.0%
same,RSG,[3]; [10],1.273
same,Adjusted CE0(%),[3]; [11],40.4%
same,RS0 (%),[3]; [11],48.3%
same,RSG,[3]; [11],0.978
same,Adjusted CE0(%),[3]; [12],71.5%
same,RS0 (%),[3]; [12],85.4%
same,RSG,[3]; [12],1.146
same,Adjusted CE0(%),[3]; [13],49.4%
same,RS0 (%),[3]; [13],59.0%
same,RSG,[3]; [13],1.081
same,Adjusted CE0(%),[3]; [14],26.6%
same,RS0 (%),[3]; [14],31.8%
same,RSG,[3]; [14],0.835
same,Adjusted CE0(%),[3]; [15],14.0%
same,RS0 (%),[3]; [15],16.7%
same,RSG,[3]; [15],0.892
same,Adjusted CE0(%),[3]; [16],84.1%
same,RS0 (%),[3]; [16],71.1%
same,RSG,[3]; [16],1.078
same,Adjusted CE0(%),[3]; [17],107.8%
same,RS0 (%),[3]; [17],91.1%
same,RSG,[3]; [17],0.902
same,Adjusted CE0(%),[3]; [18],58.9%
same,RS0 (%),[3]; [18],49.8%
same,RSG,[3]; [18],0.653
same,Adjusted CE0(%),[3]; [19],79.3%
same,RS0 (%),[3]; [19],67.0%
same,RSG,[3]; [19],0.824
same,Adjusted CE0(%),[3]; [20],96.3%
same,RS0 (%),[3]; [20],81.4%
same,RSG,[3]; [20],0.854
same,Adjusted CE0(%),[3]; [21],3.0%
same,RS0 (%),[3]; [21],2.6%
same,RSG,[3]; [21],0.036
same,Adjusted CE0(%),[3]; [22],132.4%
same,RS0 (%),[3]; [22],186.4%
same,RSG,[3]; [22],1.135
same,Adjusted CE0(%),[3]; [23],61.6%
same,RS0 (%),[3]; [23],86.8%
same,RSG,[3]; [23],0.893
same,Adjusted CE0(%),[3]; [24],84.7%
same,RS0 (%),[3]; [24],119.3%
same,RSG,[3]; [24],0.880
same,Adjusted CE0(%),[3]; [25],60.6%
same,RS0 (%),[3]; [25],85.4%
same,RSG,[3]; [25],0.786
same,Adjusted CE0(%),[3]; [26],33.1%
same,RS0 (%),[3]; [26],46.6%
same,RSG,[3]; [26],0.678
same,Adjusted CE0(%),[3]; [27],22.9%
same,RS0 (%),[3]; [27],32.3%
same,RSG,[3]; [27],0.302
same,CE3,"[3]; as fraction in mutation frequency table, 24 h treatment, -S9 mix, 173.70 μg/mL",0.841
same,CE3,"[3]; as fraction in mutation frequency table, 24 h treatment, -S9 mix, 277.90 μg/mL",0.841
same,CE3,"[3]; as fraction in mutation frequency table, 24 h treatment, -S9 mix, 444.70 μg/mL",0.793
same,CE3,"[3]; as fraction in mutation frequency table, 24 h treatment, -S9 mix, 711.5 μg/mL",0.687
same,CE3,"[3]; as fraction in mutation frequency table, 24 h treatment, -S9 mix, 1138.4 μg/mL",0.950
same,CE3,"[3]; as fraction in mutation frequency table, 24 h treatment, -S9 mix, 1821.4 μg/mL",0.433
same,CE3,"[3]; as fraction, mutation frequency table, Short treatment, +S9 mix, dose 173.7 μg/mL",0.706
same,CE3,"[3]; as fraction, mutation frequency table, Short treatment, +S9 mix, dose 277.9 μg/mL",0.667
same,CE3,"[3]; as fraction, mutation frequency table, Short treatment, +S9 mix, dose 445 μg/mL",0.816
same,CE3,"[3]; as fraction, mutation frequency table, Short treatment, +S9 mix, dose 712 μg/mL",0.980
same,CE3,"[3]; as fraction, mutation frequency table, Short treatment, +S9 mix, dose 1138 μg/mL",0.841
same,CE3,"[3]; as fraction, mutation frequency table, Short treatment, +S9 mix, dose 1821 μg/mL",0.446
same,CE3,"[3]; as fraction, mutation frequency table, Short treatment, -S9 mix, dose 173.70 μg/mL",0.893
same,CE3,"[3]; as fraction, mutation frequency table, Short treatment, -S9 mix, dose 277.90 μg/mL",0.770
same,CE3,"[3]; as fraction, mutation frequency table, Short treatment, -S9 mix, dose 444.70 μg/mL",1.046
same,CE3,"[3]; as fraction, mutation frequency table, Short treatment, -S9 mix, dose 711.5 μg/mL",1.012
same,CE3,"[3]; as fraction, mutation frequency table, Short treatment, -S9 mix, dose 1138.4 μg/mL",0.950
same,CE3,"[3]; as fraction, mutation frequency table, Short treatment, -S9 mix, dose 1821.4 μg/mL",1.046
same,RS,"[3]; 24 h, -S9 mix, 173.70 μg/mL",133.0
same,RS,"[3]; 24 h, -S9 mix, 277.90 μg/mL",48.3
same,RS,"[3]; 24 h, -S9 mix, 444.70 μg/mL",85.4
same,RS,"[3]; 24 h, -S9 mix, 711.5 μg/mL",59.0
same,RS,"[3]; 24 h, -S9 mix, 1138.4 μg/mL",31.8
same,RS,"[3]; 24 h, -S9 mix, 1821.4 μg/mL",16.7
same,RS,[3]; [16],71.1
same,RS,[3]; [17],91.1
same,RS,[3]; [18],49.8
same,RS,[3]; [19],67.0
same,RS,[3]; [20],81.4
same,RS,[3]; [21],2.6
same,RS,[3]; [22],186.4
same,RS,[3]; [23],86.8
same,RS,[3]; [24],119.3
same,RS,[3]; [25],85.4
same,RS,[3]; [26],46.6
same,RS,[3]; [27],32.3
